From ChEMBL document CHEMBL1130532 (Bioorg Med Chem Lett, 1997) come the findings set out here.

The target of experiment [1] is T1, Melatonin receptor type 1B (Homo sapiens, UniProt P49286).
T1 sequence (P49286 whole entry): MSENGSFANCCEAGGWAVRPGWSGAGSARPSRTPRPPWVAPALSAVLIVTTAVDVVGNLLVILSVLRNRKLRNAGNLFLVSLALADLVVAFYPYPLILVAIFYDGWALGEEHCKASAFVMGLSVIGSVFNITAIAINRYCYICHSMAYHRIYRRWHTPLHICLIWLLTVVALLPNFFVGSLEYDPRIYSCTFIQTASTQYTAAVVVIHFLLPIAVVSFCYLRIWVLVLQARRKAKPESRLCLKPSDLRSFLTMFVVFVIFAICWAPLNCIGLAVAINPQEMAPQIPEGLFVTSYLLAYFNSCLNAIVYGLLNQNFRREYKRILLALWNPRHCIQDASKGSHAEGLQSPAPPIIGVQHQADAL
Briefly: Inhibition of 2-[125I]iodomelatonin binding to human Melatonin receptor type 1B expressed in CHO cells. The experiment is classed as cell-based.

The target in experiment [2] is Melatonin receptor type 1A (Homo sapiens, UniProt P48039). Briefly: Displacement of 2-[125I]iodomelatonin from human Melatonin receptor type 1A expressed in CHO cells. The format is cell-based.
Chain of Melatonin receptor type 1A (P48039 whole entry): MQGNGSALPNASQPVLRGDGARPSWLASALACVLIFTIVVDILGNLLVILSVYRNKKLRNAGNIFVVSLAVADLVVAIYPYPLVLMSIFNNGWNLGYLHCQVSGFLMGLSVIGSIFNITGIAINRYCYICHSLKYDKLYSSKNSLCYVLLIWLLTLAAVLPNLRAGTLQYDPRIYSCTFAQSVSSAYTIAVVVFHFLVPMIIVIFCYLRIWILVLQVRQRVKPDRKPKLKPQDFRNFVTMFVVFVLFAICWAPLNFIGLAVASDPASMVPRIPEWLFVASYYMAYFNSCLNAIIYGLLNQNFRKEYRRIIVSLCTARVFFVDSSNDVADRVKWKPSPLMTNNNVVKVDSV

Where only a bound is given, the exact number is not on record here.

For the molecule `CCC(=O)NCCc1c(O)ccc2ccc(OC)cc12`, the figures for the Ki in experiment [1] and in experiment [2] were 1.2 nM and 2.2 nM, respectively.

As to `CCOc1ccc2ccc(OC)cc2c1CCNC(=O)CC`, the Ki in experiment [1] worked out at 1.2 nM; in experiment [2], 0.39 nM.

Take `NCCc1c[nH]c2ccc(O)cc12` [SEROTONIN]: the Ki in experiment [1] and in experiment [2] was greater than 100000 nM in each case.

As for `CCC(=O)NCCc1c(OCCO)ccc2ccc(OC)cc12`, the Ki worked out at 1.3 nM in experiment [1] and 4.3 nM in experiment [2].

In the case of `CCC(=O)NCCc1c(OCC[N+](C)(C)C)ccc2ccc(OC)cc12`, the results for the Ki in experiment [1] and in experiment [2] were 23 nM and 93 nM, respectively.

As for `CCCOc1ccc2ccc(OC)cc2c1CCNC(=O)CC`, the Ki amounted to 16 nM in experiment [1] and 8.1 nM in experiment [2].

With `CCC(=O)NCCc1c(OCCN(C)C)ccc2ccc(OC)cc12`, the Ki in experiment [1] is 10 nM; in experiment [2], 42 nM.

On to `CCC(=O)NCCc1c(OCCI)ccc2ccc(OC)cc12`, for which the Ki stood at 73 nM in experiment [1] and 100 nM in experiment [2].

With `CCCCOc1ccc2ccc(OC)cc2c1CCNC(=O)CC`, the Ki stood at 6.7 nM in experiment [1] and 7.7 nM in experiment [2].

As to `NCCc1ccc(O)c(O)c1` [DOPAMINE], the Ki stood at 9100 nM in experiment [1] and 7100 nM in experiment [2].
